Structures are written as SMILES.

The subject of one series is CGRP release. Conditions: after electrical stimulation of the trigeminal ganglion; cited from earlier work.
In series [1] the test system is dural protein extravasation induced by electrical stimulation of the trigeminal ganglion. Briefly: Plasma protein extravasation (PPE) / dural extravasation model of migraine. Type of series: in vivo. Conditions: rat. From the text: 5-HT7 antagonists are expected to have efficacy in the prophylactic (and potentially acute) treatment of migraine by: • 1) Preventing serotonin-induced vasodilatation of cranial blood vessels (Matthys, A., et al., Role of the 5-HT7 receptor in the central nervous system: from current status to future perspectives. Molecular Neurobiology, 2011; Leopoldo, M., et al., Serotonin 5-HT7 receptor agents: Structure-activity relationships and potential therapeutic applications in central nervous system disorders. Pharmacology & Therapeutics, 2011, 129, 120-148; Hedlund, P. B., The 5-HT7 receptor and disorders of the nervous system: an overview. Psychopharmacology, 2009, 206, 345-354). Contrary to the triptans, 5-HT7 antagonists would only reverse a pre-existing vasodilatation, without producing vasoconstriction by themselves. This would make 5-HT7 antagonists, in contrast to triptans, compatible with chronic use and therefore with prophylactic treatment. • 2) By inhibiting peripheral and central sensitization. […] In this rat model of migraine, dural protein extravasation is induced by electrical stimulation of the trigeminal ganglion. […]
The level of fluorescence in dura maters ipsi- and contra-lateral to the trigeminal ganglia stimulation is quantified with a digital camera (Hamamatsu C4742-98 filter for FITC objective Nikon 2.8×) and analysis software (WIT5.3, Logical vision).

Take `CC1CCN(CC[C@H]2CCCN2S(=O)(=O)c2cccc(O)c2)CC1` [SB-269970]: the “human coronary artery contraction” value in the series on human coronary artery is on record as “does not induce human coronary artery contraction”. In addition, in the series with CGRP release, the “release of CGRP” value is given as “inhibits the release of CGRP”. The “inhibition of neurogenic inflammation / reduction of protein extravasation” value in series [1] is given as “Inhibition of neurogenic inflammation”.
